From patent US20260226039A1, “INHIBITORS OF SOLVENT FRONT MUTATED RET KINASE” (Purdue Research Foundation, priority 2023, published 2026)
Positions count from the first letter of the chain named. ≈ marks a conversion by molar mass, not a printed value.

What was measured:
KIF5B-RET WT = molecular target: T1, KIF5B-RET WT (Homo sapiens, UniProt P07949); test: Cell viability assay (CellTiter-Glo) in BaF3 cells expressing KIF5B-RET (B/KR), WT; format: cell-based; details: B/KR cell line, read-out: IC50 of RET mutants, WT
T1 construct: KIF5B (fusion partner); expressed in transfected cells; host or cells: BaF3; the other entry of the earlier key: KIF5B (P33176, Kinesin-1 heavy chain)
T1 sequence (P07949 with tags, fused parts or gaps): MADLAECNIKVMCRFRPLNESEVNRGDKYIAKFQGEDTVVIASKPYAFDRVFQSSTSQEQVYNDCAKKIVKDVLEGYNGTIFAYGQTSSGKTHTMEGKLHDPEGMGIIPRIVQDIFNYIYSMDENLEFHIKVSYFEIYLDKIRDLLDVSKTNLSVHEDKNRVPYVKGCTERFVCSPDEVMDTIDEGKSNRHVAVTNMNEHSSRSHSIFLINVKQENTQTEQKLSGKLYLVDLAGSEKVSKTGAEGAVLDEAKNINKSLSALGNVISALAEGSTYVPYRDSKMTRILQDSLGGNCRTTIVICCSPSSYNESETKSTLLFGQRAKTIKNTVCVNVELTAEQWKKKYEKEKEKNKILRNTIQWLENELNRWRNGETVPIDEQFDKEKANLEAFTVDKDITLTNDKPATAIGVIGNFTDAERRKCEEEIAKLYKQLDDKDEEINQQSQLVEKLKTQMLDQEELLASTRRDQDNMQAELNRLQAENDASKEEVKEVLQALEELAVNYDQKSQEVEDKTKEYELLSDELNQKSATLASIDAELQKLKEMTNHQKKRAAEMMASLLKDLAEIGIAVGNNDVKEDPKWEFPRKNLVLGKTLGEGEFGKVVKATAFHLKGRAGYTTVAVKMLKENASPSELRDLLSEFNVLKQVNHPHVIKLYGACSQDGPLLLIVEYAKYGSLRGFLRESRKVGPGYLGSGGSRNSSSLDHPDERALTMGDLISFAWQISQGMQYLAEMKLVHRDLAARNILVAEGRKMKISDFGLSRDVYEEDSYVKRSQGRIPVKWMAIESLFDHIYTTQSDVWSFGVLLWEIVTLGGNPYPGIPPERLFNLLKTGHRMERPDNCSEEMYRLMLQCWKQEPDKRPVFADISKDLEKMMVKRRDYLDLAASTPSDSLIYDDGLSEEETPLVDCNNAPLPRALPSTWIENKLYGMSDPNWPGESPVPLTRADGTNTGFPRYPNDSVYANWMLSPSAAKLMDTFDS
Description: (§1) KIF5B-RET G810D and G810V mutations were generated by PCR-based mutagenesis with primers containing the desired mutations. […] Drug screening and ICso data of BaF3/KR and mutation cells were from 2 or more experiments performed in 3 technical replicates.

KIF5B-RET G810A = molecular target: T2, KIF5B-RET G810A (Homo sapiens, UniProt P07949, G810A); test: Cell viability assay (CellTiter-Glo) in BaF3 cells expressing KIF5B-RET G810A; format: cell-based; details: B/KR mutant cell line G810A; read-out: IC50 of RET mutants, G810A
T2 construct: KIF5B (fusion partner); expressed in transfected cells; host or cells: BaF3; the other entry of the earlier key: KIF5B (P33176, Kinesin-1 heavy chain)
T2 sequence (P07949 713-1063 G810A limits assumed): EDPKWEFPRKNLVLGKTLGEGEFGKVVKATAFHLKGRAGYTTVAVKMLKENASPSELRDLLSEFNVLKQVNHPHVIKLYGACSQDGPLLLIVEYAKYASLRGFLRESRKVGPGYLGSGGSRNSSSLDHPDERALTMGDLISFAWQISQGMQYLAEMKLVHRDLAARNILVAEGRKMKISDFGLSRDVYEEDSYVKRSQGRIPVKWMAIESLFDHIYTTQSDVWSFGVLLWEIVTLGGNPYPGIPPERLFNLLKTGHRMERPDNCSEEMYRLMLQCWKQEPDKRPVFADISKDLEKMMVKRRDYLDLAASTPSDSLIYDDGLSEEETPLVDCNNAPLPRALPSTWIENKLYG
Description: as §1

KIF5B-RET G810R = molecular target: T3, KIF5B-RET G810R (Homo sapiens, UniProt P07949, G810R); test: Cell viability assay (CellTiter-Glo) in BaF3 cells expressing KIF5B-RET G810R; format: cell-based; details: B/KR mutant cell line G810R; read-out: IC50 of RET mutants, G810R
T3 construct: KIF5B (fusion partner); expressed in transfected cells; host or cells: BaF3; the other entry of the earlier key: KIF5B (P33176, Kinesin-1 heavy chain)
T3 sequence (P07949 713-1063 G810R limits assumed): T2 sequence (P07949 713-1063 G810A limits assumed) with A98R
Description: as §1

KIF5B-RET V804M = molecular target: T4, KIF5B-RET V804M (Homo sapiens, UniProt P07949, V804M); test: Cell viability assay (CellTiter-Glo) in BaF3 cells expressing KIF5B-RET V804M; format: cell-based; details: B/KR mutant cell line V804M; read-out: IC50 of RET mutants, V804M
T4 construct: KIF5B (fusion partner); expressed in transfected cells; host or cells: BaF3; the other entry of the earlier key: KIF5B (P33176, Kinesin-1 heavy chain)
T4 sequence (P07949 713-1063 V804M limits assumed): T2 sequence (P07949 713-1063 G810A limits assumed) with V92M, A98G
Description: as §1

hERG = hERG (Homo sapiens, UniProt Q12809); test: hERG inhibition; format: biochemical
Chain of hERG (Q12809 whole entry): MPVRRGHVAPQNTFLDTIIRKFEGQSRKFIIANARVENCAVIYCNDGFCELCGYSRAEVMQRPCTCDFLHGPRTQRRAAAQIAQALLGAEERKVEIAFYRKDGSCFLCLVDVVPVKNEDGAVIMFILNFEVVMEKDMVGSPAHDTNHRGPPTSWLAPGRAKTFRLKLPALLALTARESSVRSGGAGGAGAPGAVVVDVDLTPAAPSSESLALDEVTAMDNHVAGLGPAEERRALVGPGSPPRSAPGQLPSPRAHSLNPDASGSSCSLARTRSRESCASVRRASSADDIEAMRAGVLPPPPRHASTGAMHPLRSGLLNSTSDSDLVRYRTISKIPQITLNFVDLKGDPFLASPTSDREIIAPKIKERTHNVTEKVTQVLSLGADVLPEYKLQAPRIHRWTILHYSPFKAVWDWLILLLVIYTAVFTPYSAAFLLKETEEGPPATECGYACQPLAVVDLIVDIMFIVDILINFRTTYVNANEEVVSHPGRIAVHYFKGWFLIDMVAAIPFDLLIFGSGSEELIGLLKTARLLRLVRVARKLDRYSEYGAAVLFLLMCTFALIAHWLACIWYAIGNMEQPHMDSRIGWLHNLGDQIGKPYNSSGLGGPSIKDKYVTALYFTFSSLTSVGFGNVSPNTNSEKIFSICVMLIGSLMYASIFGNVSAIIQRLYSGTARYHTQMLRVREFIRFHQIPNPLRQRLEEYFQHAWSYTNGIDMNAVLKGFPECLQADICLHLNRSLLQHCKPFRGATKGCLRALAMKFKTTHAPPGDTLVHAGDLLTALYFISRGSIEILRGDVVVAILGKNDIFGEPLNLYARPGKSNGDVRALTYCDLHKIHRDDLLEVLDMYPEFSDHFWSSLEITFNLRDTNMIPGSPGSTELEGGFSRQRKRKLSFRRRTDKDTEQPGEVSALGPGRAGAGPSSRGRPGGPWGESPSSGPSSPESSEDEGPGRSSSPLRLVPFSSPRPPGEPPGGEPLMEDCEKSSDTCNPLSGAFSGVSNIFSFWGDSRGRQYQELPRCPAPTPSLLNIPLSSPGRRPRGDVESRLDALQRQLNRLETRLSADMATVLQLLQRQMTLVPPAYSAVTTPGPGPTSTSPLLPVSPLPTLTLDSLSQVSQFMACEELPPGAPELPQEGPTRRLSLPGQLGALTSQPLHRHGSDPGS

KIF5B-RET G810D = molecular target: T5, KIF5B-RET G810D (Homo sapiens, UniProt P07949, G810D); test: Cell viability assay (CellTiter-Glo) in BaF3 cells expressing KIF5B-RET G810D; format: cell-based; details: B/KR mutant cell line G810D; read-out: IC50 of RET mutants, G810D
T5 construct: KIF5B (fusion partner); expressed in transfected cells; host or cells: BaF3 (lentiviral vector); the other entry of the earlier key: KIF5B (P33176, Kinesin-1 heavy chain)
T5 sequence (P07949 713-1063 G810D limits assumed): T2 sequence (P07949 713-1063 G810A limits assumed) with A98D
Description: as §1

Solubility at pH 6.8 = format: physicochemical
KIF5B-RET G810C = molecular target: T6, KIF5B-RET G810C (Homo sapiens, UniProt P07949, G810C); test: Cell viability assay (CellTiter-Glo) in BaF3 cells expressing KIF5B-RET G810C; format: cell-based; details: B/KR mutant cell line G810C; read-out: IC50 of RET mutants, G810C
T6 construct: KIF5B (fusion partner); expressed in transfected cells; host or cells: BaF3; the other entry of the earlier key: KIF5B (P33176, Kinesin-1 heavy chain)
T6 sequence (P07949 713-1063 G810C limits assumed): T2 sequence (P07949 713-1063 G810A limits assumed) with A98C
Description: as §1

KIF5B-RET G810S = molecular target: T7, KIF5B-RET G810S (Homo sapiens, UniProt P07949, G810S); test: Cell viability assay (CellTiter-Glo) in BaF3 cells expressing KIF5B-RET G810S; format: cell-based; details: B/KR mutant cell line G810S; read-out: IC50 of RET mutants, G810S
T7 construct: KIF5B (fusion partner); expressed in transfected cells; host or cells: BaF3; the other entry of the earlier key: KIF5B (P33176, Kinesin-1 heavy chain)
T7 sequence (P07949 713-1063 G810S limits assumed): T2 sequence (P07949 713-1063 G810A limits assumed) with A98S
Description: as §1

[1] = Protein binding (human serum); format: in vitro ADME
KIF5B-RET G810V = molecular target: T8, KIF5B-RET G810V (Homo sapiens, UniProt P07949, G810V); test: Cell viability assay (CellTiter-Glo) in BaF3 cells expressing KIF5B-RET G810V; format: cell-based; details: B/KR mutant cell line G810V; read-out: IC50 of RET mutants, G810V
T8 construct: KIF5B (fusion partner); expressed in transfected cells; host or cells: BaF3 (lentiviral vector); the other entry of the earlier key: KIF5B (P33176, Kinesin-1 heavy chain)
T8 sequence (P07949 713-1063 G810V limits assumed): T2 sequence (P07949 713-1063 G810A limits assumed) with A98V
Description: as §1

B/KR(G810C) CDX tumors = test: In vivo activity on B/KR(G810C) CDX tumors in mice; details: daily oral gavage
Procedure: Mice bearing B/KR(G810C) CDX tumors were treated with the test compounds at the indicated doses by daily oral gavage. Tumor dimensions were measured with a caliper, and tumor sizes were estimated using the Formula: tumor size=(Length×width×width)/2. The data shown are the mean±sd.
BaF3/KR(G810C) cells were tested free of 20 mouse pathogens (IDEXX, Columbia, MO) and mycoplasma. Cells (1×10^7 cells/0.1 ml/each) were inoculated subcutaneously into the right flank of approximately 5-week old female SHO mice (Charles River, Wilmington, MA). After tumor formation, mice (6 mice/group) were treated with vehicle or test compounds at the indicated doses by oral gavage once a day. Tumor size and animal body weight were measured as described. Statistical analysis was performed using the unpaired Mann-Whitney test.

In the case of `CN1CCN(Cc2ccc(NC(=O)c3cncc(C#Cc4cnc(N)nc4)c3)cc2C(F)(F)F)CC1` [Example 2, 5-((2-Aminopyrimidin-5-yl)ethynyl)-N-(4-((4-methylpiperazin-1-yl)methyl)-3-(trifluoromethyl)phenyl)nicotinamide], the IC50 (KIF5B-RET WT) is reported as 3.49 ± 0.16 nM, the IC50 (KIF5B-RET G810A) is reported as 3.89 ± 0.07 nM and the IC50 (KIF5B-RET G810R) is reported as 46.8 ± 1.11 nM. It also gave an IC50 (KIF5B-RET V804M) of 20.3 ± 1.09 nM, an IC50 (hERG) of 23 µM and an IC50 (KIF5B-RET G810D) of 1.47 ± 0.05 nM. The solubility (Solubility at pH 6.8) was 117 µM (≈ 58 µg/mL), the IC50 (KIF5B-RET G810C) was 12.2 ± 0.63 nM and the IC50 (KIF5B-RET G810S) was 8.02 ± 0.21 nM. For the same compound, the protein-bound [1] was 94%, the IC50 (KIF5B-RET G810V) was 8.34 ± 0.36 nM and the “effect on B/KR(G810C) CDX tumors” value (B/KR(G810C) CDX tumors; 25 mg/Kg) was “tumor regression”.

In the case of `CN1CCN(Cc2ccc(NC(=O)c3cncc(C#Cc4cnc5[nH]ncc5c4)c3)cc2C(F)(F)F)CC1` [Example 1, 5-((1H-Pyrazolo[3,4-b]pyridin-5-yl)ethynyl)-N-(4-((4-methylpiperazin-1-yl)methyl)-3-(trifluoromethyl)phenyl)nicotinamide], the IC50 (KIF5B-RET WT) is reported as 1.7 ± 0.08 nM, the IC50 (KIF5B-RET G810A) is reported as 1.56 ± 0.07 nM and the IC50 (KIF5B-RET G810R) is reported as 24.5 ± 0.79 nM. It also gave an IC50 (KIF5B-RET V804M) of 14.1 ± 0.54 nM, an IC50 (KIF5B-RET G810D) of 5.21 ± 0.36 nM and an IC50 (KIF5B-RET G810C) of 11.4 ± 0.32 nM. For the same compound, the IC50 (KIF5B-RET G810S) was 7.76 ± 0.33 nM and the IC50 (KIF5B-RET G810V) was 4.1 ± 0.3 nM.

With `CN1CCN(Cc2ccc(NC(=O)c3cncc(C#Cc4cnc(N)c5ncccc45)c3)cc2C(F)(F)F)CC1` [HSN608, reference compound] the solubility (Solubility at pH 6.8) was 0.07 µM (≈ 0.0382 µg/mL), the protein-bound [1] was 99% and the “effect on B/KR(G810C) CDX tumors” value (B/KR(G810C) CDX tumors; 50 mg/Kg) was “tumor regression”.
